The record followed here is patent US20250059214A1, “AMIDE-CONTAINING LONP1 INHIBITOR COMPOUNDS, USES AND METHODS” (Pretzel Therapeutics, Inc., priority 2021, published 2025).

For this assay, the target named is LONP1 (NM_004793.4) (Homo sapiens (Human), UniProt P36776). Put plainly: FRET-based assay for LONP1 protease activity using fluorogenic peptide substrate. In kind it is biochemical. The settings on record: LONP1 15 nM as monomer, substrate 3 μM, 1 hour at 37° C., 15 min pre-incubation with compound; average of a minimum of two repeats. How it is done:
Inhibition of LONP1 protease activity by an inhibitor compound of the disclosure elicits a decrease in the fluorescent signal.
The LONP1-containing mix (10 μL) was incubated with the test compound for 15 min at 37° C. before adding the peptide-containing mix (5 μL). Solutions were dispensed using a small cassette-Multidrop Combi (Thermo Scientific).
Each value is based on an average of a minimum of two repeats.

Molecules are shown by their SMILES. Some results are limits rather than exact numbers.

Sequence of LONP1 (NM_004793.4) (P36776 68-959): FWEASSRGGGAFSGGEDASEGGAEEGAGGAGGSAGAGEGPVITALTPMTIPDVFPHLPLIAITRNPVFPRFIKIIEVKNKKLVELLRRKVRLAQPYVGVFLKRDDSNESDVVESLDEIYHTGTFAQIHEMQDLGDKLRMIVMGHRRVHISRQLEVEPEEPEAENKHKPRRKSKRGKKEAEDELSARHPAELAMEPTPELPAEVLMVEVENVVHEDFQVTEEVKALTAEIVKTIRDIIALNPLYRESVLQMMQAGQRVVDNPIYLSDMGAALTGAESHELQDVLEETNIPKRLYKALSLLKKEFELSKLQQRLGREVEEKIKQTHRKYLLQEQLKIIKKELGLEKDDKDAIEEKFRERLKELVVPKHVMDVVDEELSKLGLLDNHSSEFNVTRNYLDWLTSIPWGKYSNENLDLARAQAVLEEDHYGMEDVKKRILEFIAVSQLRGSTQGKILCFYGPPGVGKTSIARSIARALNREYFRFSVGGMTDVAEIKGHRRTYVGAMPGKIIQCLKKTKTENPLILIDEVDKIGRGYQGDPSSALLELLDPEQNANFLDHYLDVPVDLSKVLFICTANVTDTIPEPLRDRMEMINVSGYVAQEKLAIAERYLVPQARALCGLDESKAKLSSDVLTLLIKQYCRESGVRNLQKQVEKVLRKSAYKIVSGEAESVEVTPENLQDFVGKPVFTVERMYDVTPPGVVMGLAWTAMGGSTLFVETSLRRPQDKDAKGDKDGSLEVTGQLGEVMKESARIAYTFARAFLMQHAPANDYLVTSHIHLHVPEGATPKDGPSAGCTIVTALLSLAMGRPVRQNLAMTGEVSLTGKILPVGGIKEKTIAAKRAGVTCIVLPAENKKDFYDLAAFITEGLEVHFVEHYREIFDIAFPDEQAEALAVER

Turning to `O=C(N[C@@H](CCCc1ccccc1)B(O)O)[C@H](CC(=O)N1CCOCC1)NS(=O)(=O)c1ccccc1` [Compound 33, ((R)-1-((S)-4-morpholino-4-oxo-2-(phenylsulfonamido)butanamido)-4-phenylbutyl)boronic acid], the IC50 was less than 50 nM.
As to `O=C(N[C@@H](CCCc1ccccc1)B(O)O)[C@@H](CC(=O)N1CCOCC1)NS(=O)(=O)c1cc(Cl)ccc1Cl` [Compound 37, ((R)-1-((R)-2-((2,5-dichlorophenyl)sulfonamido)-4-morpholino-4-oxobutanamido)-4-phenylbutyl)boronic acid], the IC50 was less than 50 nM.
Take `O=C(N[C@H](CC(=O)N1CCOCC1)C(=O)N[C@@H](Cc1ccccc1)B(O)O)c1cnccn1` [Compound 28, ((R)-1-((R)-4-morpholino-4-oxo-2-(pyrazine-2-carboxamido)butanamido)-2-phenylethyl) boronic acid]: the half-maximal inhibitory concentration (IC50) lay within 500 to 5000 nM.
In the case of `O=C(N[C@H](CC(=O)N1CCOCC1)C(=O)N[C@@H](CCCc1ccccc1)B(O)O)c1cc(Cl)ccc1Cl` [Compound 35, ((R)-1-((R)-2-(2,5-dichlorobenzamido)-4-morpholino-4-oxobutanamido)-4-phenylbutyl)boronic acid] it was less than 50 nM.
To `CC[C@H](NC(=O)[C@@H](CC(=O)N1CCOCC1)NC(=O)c1cnccn1)B(O)O` [Compound 19, ((R)-1-((R)-4-morpholino-4-oxo-2-(pyrazine-2-carboxamido)butanamido)propyl)boronic acid] belongs 50 to 500 nM; to `O=C(N[C@H](CC(=O)N1CCOCC1)C(=O)N[C@@H](CCCc1ccccc1)B(O)O)O[C@@H]1CCOC1` [Compound 36, ((R)-1-((R)-4-morpholino-4-oxo-2-(((((R)-tetrahydrofuran-3-yl)oxy)carbonyl)amino)butanamido)-4-phenylbutyl)boronic acid], less than 50 nM; to `CCCC[C@H](NC(=O)[C@@H](CC(=O)N1CCOCC1)NC(=O)c1cnccn1)B(O)O` [Compound 5, ((R)-1-((R)-4-morpholino-4-oxo-2-(pyrazine-2-carboxamido)butanamido)pentyl)boronic acid], 50 to 500 nM.
In the case of `Cc1nc(C)c(C(=O)N[C@H](CC(=O)N2CCOCC2)C(=O)N[C@@H](CC(C)C)B(O)O)o1` [Compound 6, ((R)-1-((R)-2-(2,4-dimethyloxazole-5-carboxamido)-4-morpholino-4-oxobutanamido)-3-methylbutyl)boronic acid] it was 50 to 500 nM; in that of `CC(C)C[C@H](NC(=O)[C@@H](CC(=O)N1CCOCC1)NC(=O)c1cnccn1)B(O)O` [Compound 3, ((R)-3-methyl-1-((R)-4-morpholino-4-oxo-2-(pyrazine-2-carboxamido)butanamido)butyl)boronic acid], 50 to 500 nM.
As to `CCC[C@H](NC(=O)[C@@H](CC(=O)N1CCOCC1)NC(=O)c1cnccn1)B(O)O` [Compound 18, ((R)-1-((R)-4-morpholino-4-oxo-2-(pyrazine-2-carboxamido)butanamido)butyl)boronic acid], the IC50 was 50 to 500 nM.
On to `CC(C)(C)OC(=O)N(CCc1ccccc1)[C@H](CC(=O)N1CCOCC1)C(=O)N[C@@H](CCCc1ccccc1)B(O)O` [Compound 41, ((R)-1-((R)-2-((tert-butoxycarbonyl)(phenethyl)amino)-4-morpholino-4-oxobutanamido)-4-phenylbutyl)boronic acid], for which the concentration for half-maximal inhibition (IC50) is 500 to 5000 nM.
In the case of `CC(C)(C)OC(=O)N(Cc1ccccc1)[C@H](CC(=O)N1CCOCC1)C(=O)N[C@@H](CCCc1ccccc1)B(O)O` [Compound 34, ((R)-1-((R)-2-(benzyl(tert-butoxycarbonyl)amino)-4-morpholino-4-oxobutanamido)-4-phenylbutyl)boronic acid] it was 500 to 5000 nM; in that of `O=C(N[C@@H](CCCc1ccccc1)B(O)O)[C@@H](CC(=O)N1CCOCC1)NS(=O)(=O)c1cccc(Cl)c1` [Compound 29, ((R)-1-((R)-2-((3-chlorophenyl)sulfonamido)-4-morpholino-4-oxobutanamido)-4-phenylbutyl)boronic acid], less than 50 nM.
To `O=C(N[C@@H](CCCc1ccccc1)B(O)O)[C@@H](CC(=O)N1CCOCC1)NC(=O)[C@H]1CCCCO1` [Compound 48, ((R)-1-((R)-4-morpholino-4-oxo-2-((R)-tetrahydro-2H-pyran-2-carboxamido)butanamido)-4-phenylbutyl)boronic acid] belongs 50 to 500 nM; to `O=C(N[C@@H](CCCc1ccccc1)B(O)O)[C@@H](CC(=O)N1CCOCC1)NC(=O)N1CCCC1` [Compound 42, ((R)-1-((R)-4-morpholino-4-oxo-2-(pyrrolidine-1-carboxamido)butanamido)-4-phenylbutyl)boronic acid], 50 to 500 nM; to `CC(C)NC(=O)N[C@H](CC(=O)N1CCOCC1)C(=O)N[C@@H](CCCc1ccccc1)B(O)O` [Compound 38, ((R)-1-((R)-2-(3-isopropylureido)-4-morpholino-4-oxobutanamido)-4-phenylbutyl)boronic acid], 50 to 500 nM.
In the case of `O=C(N[C@H](CC(=O)N1CCOCC1)C(=O)N[C@@H](CCCc1ccccc1)B(O)O)C1CCOCC1` [Compound 23, ((R)-1-((R)-4-morpholino-4-oxo-2-(tetrahydro-2H-pyran-4-carboxamido)butanamido)-4-phenylbutyl)boronic acid] it was less than 50 nM.
For the compound `CNC(=O)N[C@H](CC(=O)N1CCOCC1)C(=O)N[C@@H](CCCc1ccccc1)B(O)O` [Compound 43, ((R)-1-((R)-2-(3-methylureido)-4-morpholino-4-oxobutanamido)-4-phenylbutyl)boronic acid], the IC50 fell in the range of 50 to 500 nM.
Consider `O=C(N[C@@H](CCCc1ccccc1)B(O)O)[C@@H](CC(=O)N1CCOCC1)Nc1ccccc1` [Compound 46], for which the IC50 fell in the range of 50 to 500 nM.
In the case of `O=C(N[C@H](CC(=O)N1CCOCC1)C(=O)N[C@@H](CCCc1ccccc1)B(O)O)[C@@H]1CCCCO1` [Compound 49, ((R)-1-((R)-4-morpholino-4-oxo-2-((S)-tetrahydro-2H-pyran-2-carboxamido)butanamido)-4-phenylbutyl)boronic acid] it was 50 to 500 nM; in that of `O=C(N[C@@H](CCCc1ccccc1)B(O)O)[C@@H](CC(=O)N1CCOCC1)NC(=O)N1CC[C@@H](O)C1` [Compound 44, ((R)-1-((R)-2-((R)-3-hydroxypyrrolidine-1-carboxamido)-4-morpholino-4-oxobutanamido)-4-phenylbutyl)boronic acid], 50 to 500 nM; in that of `O=C(N[C@@H](CCCc1ccccc1)B(O)O)[C@@H](CC(=O)N1CCOCC1)NS(=O)(=O)c1cnccn1` [Compound 39, ((R)-1-((R)-4-morpholino-4-oxo-2-(pyrazine-2-sulfonamido)butanamido)-4-phenylbutyl)boronic acid], 50 to 500 nM.
With `CC(=O)N[C@H](CC(=O)N1CCOCC1)C(=O)N[C@@H](CCCc1ccccc1)B(O)O` [Compound 11], the IC50 lay in the range of 50 to 500 nM.
To `O=C(N[C@H](CC(=O)N1CCOCC1)C(=O)N[C@H]1CCOB1O)c1cnccn1` [Compound 47, N—((R)-1-(((R)-2-hydroxy-1,2-oxaborolan-3-yl)amino)-4-morpholino-1,4-dioxobutan-2-yl)pyrazine-2-carboxamide] belongs greater than 5000 nM.
In the case of `CN(C)C(=O)N[C@H](CC(=O)N1CCOCC1)C(=O)N[C@@H](CCCc1ccccc1)B(O)O` [Compound 20], the IC50 is 50 to 500 nM.
To `O=C(N[C@H](CC(=O)N1CCOCC1)C(=O)N[C@@H](CCc1ccccc1)B(O)O)c1cnccn1` [Compound 4, ((R)-1-((R)-4-morpholino-4-oxo-2-(pyrazine-2-carboxamido)butanamido)-3-phenylpropyl)boronic acid] belongs 50 to 500 nM; to `O=C(N[C@@H](CCCc1ccccc1)B(O)O)[C@@H](CC(=O)N1CCOCC1)NC(=O)N1CC[C@H](O)C1` [Compound 45, ((R)-1-((R)-2-((S)-3-hydroxypyrrolidine-1-carboxamido)-4-morpholino-4-oxobutanamido)-4-phenylbutyl)boronic acid], 50 to 500 nM.
To `O=C(N[C@@H](CCCc1ccccc1)B(O)O)[C@@H](CC(=O)N1CCOCC1)NCCc1ccccc1` [Compound 40, ((R)-1-((R)-4-morpholino-4-oxo-2-(phenethylamino)butanamido)-4-phenylbutyl)boronic acid] belongs 50 to 500 nM.
To `O=C(N[C@H](CC(=O)N1CCOCC1)C(=O)N[C@@H](CCCc1ccccc1)B(O)O)O[C@H]1CCOC1` [Compound 32, ((R)-1-((R)-4-morpholino-4-oxo-2-(((((S)tetrahydrofuran-3-yl)oxy)carbonyl)amino)butanamido)-4-phenylbutyl)boronic acid] belongs less than 50 nM.
`O=C(N[C@@H](CCCc1ccccc1)B(O)O)[C@@H](CC(=O)N1CCOCC1)NCc1ccccc1` [Compound 31]: the IC50 is 50 to 500 nM.
As for `O=C(N[C@H](CC(=O)N1CCOCC1)C(=O)N[C@@H](CCCc1ccccc1)B(O)O)C1CCCCC1` [Compound 22, ((R)-1-((R)-2-(cyclohexanecarboxamido)-4-morpholino-4-oxobutanamido)-4-phenylbutyl)boronic acid], the IC50 is less than 50 nM.
With `O=C(N[C@@H](CCCc1ccccc1)B(O)O)[C@@H](CC(=O)N1CCOCC1)NS(=O)(=O)c1ccccc1Cl` [Compound 30, ((R)-1-((R)-2-((2-chlorophenyl)sulfonamido)-4-morpholino-4-oxobutanamido)-4-phenylbutyl)boronic acid], the IC50 is 50 to 500 nM.
